In US20180153850A1, “COMPOSITIONS AND METHODS FOR TREATMENT OF CANCER” (The Regents of the University of California, priority 2015, published 2018):
Like-named read-outs stand apart in the source and are kept apart here.

What was measured:
TaxR cells = assay: Cell growth assay in TaxR cells; assay type: cell-based; conditions: 24 h, read-out: IC50 value of docetaxel, TaxR cells
Experimental: Top panel, fluorescent and phase contrast pictures are shown. Lower panel, rhodamine intake ratio. […] Cell numbers were counted after 24 hrs of treatment.
Fluorescent and phase contrast pictures are shown. Lower panel is the rhodamine intake ratio. […] Cell numbers were counted after 24 hrs of treatment. […] The numbers of colonies were counted after 3 weeks.
(§1) Cells were seeded in 12-well plates at a density of 1×10^5 cells per well. Cells were treated and total cell numbers were counted using a Coulter cell counter.

DU145-DTXR cells = assay: Cell growth assay in DU145-DTXR cells; assay type: cell-based; conditions: for IC50: 24 h; for docetaxel resistance in DU145-DTXR cells: 10 nM docetaxel with 0.5 μM elacridar or 20 μM bicalutamide or enzalutamide, 48 hrs
Experimental: (§2) Top panel, fluorescent and phase contrast pictures are shown. Lower panel, rhodamine intake ratio. […] Cell numbers were counted after 24 hrs of treatment. […] Cell numbers were counted after 24 hrs of treatment. […] Tumor sizes were measured twice a week.
DU145-DTXR cells were plated in 12-well plate at 1×10^5 cells per well. […] FIG. 8A: Cell numbers were counted. FIG. 8B: Cell pictures were taken to show the cell survival inhibition.
DU145-DTXR cells were plated in 12-well plate at 1×10^5 cells per well. […] Cell numbers were counted (top panel: bicalutamide; bottom panel: enzalutamide). FIG. 9B: DU145 parental cells and DU145-DTX cells were plated in 12-well plate at 1×10^5 cells per well. […] Cell numbers were counted.
as §1

DU145 cells = assay: Cell growth assay in parental DU145 cells; assay type: cell-based; conditions: Homo sapiens, DU-145, read-out: IC50 to docetaxel, 24 hrs
Experimental: as §2, §1

C4-2B tumors = assay: In vivo tumorigenesis assay, C4-2B tumors; parameters: species or system SCID mice; conditions: docetaxel 10 mg/kg once a week
Experimental: (§3) Tumor sizes were measured twice a week. *, P<0.05. **, P<0.01. DTX, docetaxel, Bic, bicalutamide.
(§4) Tumor tissues were harvested after 3 weeks of treatment.

TaxR tumors = assay: In vivo tumorigenesis assay, TaxR tumors; parameters: species or system SCID mice; conditions: docetaxel 10 mg/kg i.p. once a week; bicalutamide 25 mg/kg p.o. 5 days a week; 3 weeks
Experimental: as §3, §4

ABCB1 = ABCB1 (Homo sapiens, UniProt P08183); conditions: 48 h, 20 μmol/L
Experimental: (§5) FIG. 1A: C4-2B and TaxR cells were seeded in 6-well plates at a density of 2×10^5 cells per well. […] Cells were incubated with 1 μg/mL Rhodamine 123 for another 4 hrs. The cells were then washed 3 times with 1×PBS. Fluorescence was detected at an excitation wavelength of 480 nm and an emission wavelength of 534 nm. […] Lower panel, rhodamine intake ratio.
(§6) Cells were incubated with 1 μg/mL Rhodamine 123 for another 4 hrs. The cells were then washed three times with 1×PBS. Fluorescence was detected at an excitation wavelength of 480 nm and an emission wavelength of 534 nm. […] Lower panel is the rhodamine intake ratio.
(§7) Cells were seeded in 6-well plates at a density of 2×10^5 cells per well. […] The cells were then washed three times with PBS. […] Each experiment was repeated at least 3 times.

[1] = target: ABCB1 (P-glycoprotein, MDR1) (Homo sapiens, UniProt P08183); assay: in vitro
Experimental: as §5, §6, §7

ABCB1 (P-gp) ATPase = ABCB1 (P-gp) ATPase (Homo sapiens, UniProt P08183); assay: in vitro
Sequence of ABCB1 (P-gp) ATPase (P08183 whole entry): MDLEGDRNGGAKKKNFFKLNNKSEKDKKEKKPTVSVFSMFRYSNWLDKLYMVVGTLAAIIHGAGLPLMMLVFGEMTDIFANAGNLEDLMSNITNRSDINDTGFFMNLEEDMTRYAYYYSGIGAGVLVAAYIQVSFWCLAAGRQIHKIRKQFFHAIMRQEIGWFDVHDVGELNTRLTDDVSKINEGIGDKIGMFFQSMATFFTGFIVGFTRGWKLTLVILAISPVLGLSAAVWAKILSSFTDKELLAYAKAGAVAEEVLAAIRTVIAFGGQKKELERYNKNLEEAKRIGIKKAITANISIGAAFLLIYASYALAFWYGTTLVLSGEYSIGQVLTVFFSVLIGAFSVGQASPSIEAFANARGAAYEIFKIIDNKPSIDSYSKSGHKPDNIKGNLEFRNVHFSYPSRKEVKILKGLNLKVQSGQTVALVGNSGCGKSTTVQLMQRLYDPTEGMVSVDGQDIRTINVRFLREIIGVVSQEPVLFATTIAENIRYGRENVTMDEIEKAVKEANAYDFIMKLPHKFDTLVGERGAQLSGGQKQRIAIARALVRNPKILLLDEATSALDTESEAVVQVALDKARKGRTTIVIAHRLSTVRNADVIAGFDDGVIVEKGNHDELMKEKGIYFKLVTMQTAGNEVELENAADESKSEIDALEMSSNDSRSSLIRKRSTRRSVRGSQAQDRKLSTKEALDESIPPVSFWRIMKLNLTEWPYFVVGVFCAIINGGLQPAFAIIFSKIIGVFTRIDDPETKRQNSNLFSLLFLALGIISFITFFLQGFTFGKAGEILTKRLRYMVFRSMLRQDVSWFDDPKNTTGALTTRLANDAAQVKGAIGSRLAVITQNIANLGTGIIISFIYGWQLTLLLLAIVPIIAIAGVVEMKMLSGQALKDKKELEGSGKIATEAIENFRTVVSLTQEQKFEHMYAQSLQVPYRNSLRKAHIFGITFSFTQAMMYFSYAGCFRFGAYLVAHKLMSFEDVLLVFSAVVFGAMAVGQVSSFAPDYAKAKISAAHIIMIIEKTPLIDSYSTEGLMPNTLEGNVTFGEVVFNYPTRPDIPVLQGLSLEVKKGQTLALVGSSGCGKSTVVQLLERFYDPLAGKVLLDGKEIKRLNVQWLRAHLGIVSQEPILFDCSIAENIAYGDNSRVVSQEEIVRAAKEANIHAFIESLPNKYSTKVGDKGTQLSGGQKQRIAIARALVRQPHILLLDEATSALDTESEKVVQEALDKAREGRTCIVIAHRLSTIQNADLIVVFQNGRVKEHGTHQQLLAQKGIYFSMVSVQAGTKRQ

Sequence of ABCB1 (P-glycoprotein, MDR1) (P08183 whole entry): as above
Sequence of ABCB1 (P08183 whole entry): as above

Work on `CC(=O)O[C@@]12CO[C@@H]1C[C@H](O)[C@@]1(C)C(=O)[C@H](O)C3=C(C)[C@@H](OC(=O)[C@H](O)[C@@H](NC(=O)OC(C)(C)C)c4ccccc4)C[C@@](O)([C@@H](OC(=O)c4ccccc4)[C@H]21)C3(C)C` [docetaxel] yielded an IC50 (TaxR cells; docetaxel alone, 24 hrs) of 140 nM, an IC50 (TaxR cells; in combination with 20 μM bicalutamide, 24 hrs) of ~5 nM and an IC50 (TaxR cells; in combination with 20 μM enzalutamide, 24 hr) of ~3 nM. For the same molecule, the “effect on growth of DU145-DTXR cells” value (DU145-DTXR cells; 10 nM docetaxel, 20 μM bicalutamide, alone or combined, 24 hrs) was “only minimal effects”, the IC50 (DU145-DTXR cells; read-out: IC50 to docetaxel) was 52 nM and the IC50 (DU145-DTXR cells; read-out: IC50 value of docetaxel) was ~7.5 nM. For the same molecule, the IC50 (DU145 cells) was 4.3 nM, the C4-2B tumor growth (C4-2B tumors) was “significantly repressed” and the “tumor growth of TaxR cells” value (TaxR tumors) was “Neither docetaxel nor bicalutamide treatment alone inhibited tumor growth”.
In the case of `CNC(=O)c1ccc(N2C(=S)N(c3ccc(C#N)c(C(F)(F)F)c3)C(=O)C2(C)C)cc1F` [enzalutamide], the “docetaxel resistance in DU145-DTXR cells” value (DU145-DTXR cells) is reported as “reversal of docetaxel resistance”, the rhodamine intake (ABCB1) is reported as 66.2% and the inhibition at 24 h, 20 μM [1] is reported as ~60%. The inhibition at 40 min, 40 µM (ABCB1 (P-gp) ATPase) was 60%.
With `COc1cc2c(cc1OC)CN(CCc1ccc(NC(=O)c3cccc4c(=O)c5cccc(OC)c5[nH]c34)cc1)CC2` [elacridar] the “docetaxel resistance in DU145-DTXR cells” value (DU145-DTXR cells) was “reversal of docetaxel resistance” and the inhibition at 40 min, 2.5 µM (ABCB1 (P-gp) ATPase) was 69%.
